From ChEMBL document CHEMBL4270577, “Synthesis, anticancer activity and molecular modeling studies of 1,2,4-triazole derivatives as EGFR inhibitors” (Eur J Med Chem, 2018)

How the values were obtained:
[1] = tested on: PANC-1; test: Antiproliferative activity against human PANC1 cells after 48 hrs by propidium iodide staining-based fluorometric analysis; format: functional, cell-based; conditions: PANC-1, 48 h
[2] = tested on: MIA PaCa-2; test: Antiproliferative activity against human MIAPaCa2 cells after 48 hrs by propidium iodide staining-based fluorometric analysis; format: functional, cell-based; conditions: MIA PaCa-2, 48 h
[3] = tested on: HT-29; test: Antiproliferative activity against human HT-29 cells after 48 hrs by propidium iodide staining-based fluorometric analysis; format: functional, cell-based; conditions: HT-29, 48 h
[4] = tested on: NCI-H460; test: Antiproliferative activity against human H460 cells after 48 hrs by propidium iodide staining-based fluorometric analysis; format: functional, cell-based; conditions: NCI-H460, 48 h
[5] = biological target: Epidermal growth factor receptor (Homo sapiens, UniProt P00533); test: Inhibition of His6-tagged recombinant EGFR cytoplasmic domain (645 to 1186 residues) (unknown origin) expressed in baculovirus infected Sf9 insect cells preincubated for 10 mins followed by ATP-MgCl2 addition and measured after 1 hr by DELFIA/time-resolved fluorometric analysis
Sequence of Epidermal growth factor receptor (P00533 whole entry, the tested form may be a part): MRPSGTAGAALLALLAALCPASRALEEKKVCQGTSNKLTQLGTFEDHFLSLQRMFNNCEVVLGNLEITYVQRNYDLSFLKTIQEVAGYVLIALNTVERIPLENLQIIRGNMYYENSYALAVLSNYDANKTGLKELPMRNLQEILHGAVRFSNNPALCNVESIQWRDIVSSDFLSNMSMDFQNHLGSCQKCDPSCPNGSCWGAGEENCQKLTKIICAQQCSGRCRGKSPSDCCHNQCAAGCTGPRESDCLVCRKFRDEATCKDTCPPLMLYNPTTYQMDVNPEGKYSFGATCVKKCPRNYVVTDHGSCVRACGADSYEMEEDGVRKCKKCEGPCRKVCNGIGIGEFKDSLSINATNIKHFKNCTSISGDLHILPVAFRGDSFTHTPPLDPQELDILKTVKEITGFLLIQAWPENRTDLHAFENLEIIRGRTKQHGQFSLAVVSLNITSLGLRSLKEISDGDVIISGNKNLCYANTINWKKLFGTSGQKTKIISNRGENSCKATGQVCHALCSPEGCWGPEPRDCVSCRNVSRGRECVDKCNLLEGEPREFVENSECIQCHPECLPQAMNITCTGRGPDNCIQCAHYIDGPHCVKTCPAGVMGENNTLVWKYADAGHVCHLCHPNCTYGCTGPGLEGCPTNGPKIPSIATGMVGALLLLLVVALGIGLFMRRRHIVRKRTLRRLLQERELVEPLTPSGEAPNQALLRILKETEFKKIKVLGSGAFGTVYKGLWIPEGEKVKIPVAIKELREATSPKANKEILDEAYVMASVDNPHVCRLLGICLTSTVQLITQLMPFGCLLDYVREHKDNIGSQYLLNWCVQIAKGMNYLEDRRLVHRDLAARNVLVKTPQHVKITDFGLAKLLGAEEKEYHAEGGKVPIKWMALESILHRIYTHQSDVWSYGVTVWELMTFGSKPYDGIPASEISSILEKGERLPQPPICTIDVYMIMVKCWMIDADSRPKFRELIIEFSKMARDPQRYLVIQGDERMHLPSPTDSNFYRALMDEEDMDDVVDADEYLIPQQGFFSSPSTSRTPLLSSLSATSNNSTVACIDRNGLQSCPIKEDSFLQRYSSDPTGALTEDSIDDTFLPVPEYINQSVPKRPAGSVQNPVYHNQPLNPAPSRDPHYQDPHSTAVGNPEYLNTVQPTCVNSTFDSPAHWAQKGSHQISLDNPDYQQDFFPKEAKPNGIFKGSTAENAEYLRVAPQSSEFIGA

[6] = tested on: A549; test: Induction of apoptosis in human A549 cells assessed as early apoptotic cells at 0.4 uM after 24 hrs by Annexin V/propidium iodide staining based flow cytometric analysis (reference value: 0.22%); format: functional
[7] = tested on: A549; test: Induction of apoptosis in human A549 cells assessed as late apoptotic cells at 0.4 uM after 24 hrs by Annexin V/propidium iodide staining based flow cytometric analysis (reference value: 0.08%); format: functional
[8] = tested on: A549; test: Induction of apoptosis in human A549 cells assessed as necrotic cells at 0.4 uM after 24 hrs by Annexin V/propidium iodide staining based flow cytometric analysis (reference value: 0.09%); format: functional
[9] = tested on: A549; test: Induction of apoptosis in human A549 cells assessed as viable cells at 0.4 uM after 24 hrs by Annexin V/propidium iodide staining based flow cytometric analysis (reference value: 98.03%); format: functional; conditions: A549, 24 h, read-out: Activity
[10] = tested on: A549; test: Cell cycle arrest in human A549 cells assessed as accumulation at G1 phase at 0.4 uM after 24 hrs by propidium iodide staining based flow cytometry (reference value: 67.52%); format: functional
[11] = tested on: A549; test: Cell cycle arrest in human A549 cells assessed as accumulation at G2 phase at 0.4 uM after 24 hrs by propidium iodide staining based flow cytometry (reference value: 4.19%); format: functional
[12] = tested on: A549; test: Cell cycle arrest in human A549 cells assessed as accumulation at S phase at 0.4 uM after 24 hrs by propidium iodide staining based flow cytometry (reference value: 27.9%); format: functional
[13] = tested on: CCRF-CEM; test: Growth inhibition of human CCRF-CEM cells at 10 uM incubated for 48 hrs by sulforhodamine B assay relative to control; format: functional; conditions: read-out: GI
[14] = tested on: HL-60(TB); test: Growth inhibition of human HL-60(TB) cells at 10 uM incubated for 48 hrs by sulforhodamine B assay relative to control; format: functional; conditions: HL-60, 48 h, read-out: GI
[15] = tested on: K562; test: Growth inhibition of human K562 cells at 10 uM incubated for 48 hrs by sulforhodamine B assay relative to control; format: functional; conditions: K562, 48 h, read-out: GI
[16] = tested on: MOLT-4; test: Growth inhibition of human MOLT4 cells at 10 uM incubated for 48 hrs by sulforhodamine B assay relative to control; format: functional; conditions: MOLT-4, 48 h, read-out: GI
[17] = tested on: RPMI-8226; test: Growth inhibition of human RPMI8226 cells at 10 uM incubated for 48 hrs by sulforhodamine B assay relative to control; format: functional; conditions: RPMI-8226, 48 h, read-out: GI
[18] = tested on: SR; test: Growth inhibition of human SR cells at 10 uM incubated for 48 hrs by sulforhodamine B assay relative to control; format: functional; conditions: read-out: GI
[19] = tested on: A549; test: Growth inhibition of human A549/ATCC cells at 10 uM incubated for 48 hrs by sulforhodamine B assay relative to control; format: functional; conditions: A549, 48 h, read-out: GI
[20] = tested on: HOP-62; test: Growth inhibition of human HOP62 cells at 10 uM incubated for 48 hrs by sulforhodamine B assay relative to control; format: functional; conditions: HOP-62, 48 h, read-out: GI
[21] = tested on: HOP-92; test: Growth inhibition of human HOP92 cells at 10 uM incubated for 48 hrs by sulforhodamine B assay relative to control; format: functional; conditions: HOP-92, 48 h, read-out: GI
[22] = tested on: NCI-H226; test: Growth inhibition of human NCI-H226 cells at 10 uM incubated for 48 hrs by sulforhodamine B assay relative to control; format: functional; conditions: NCI-H226, 48 h, read-out: GI
[23] = tested on: NCI-H23; test: Growth inhibition of human NCI-H23 cells at 10 uM incubated for 48 hrs by sulforhodamine B assay relative to control; format: functional; conditions: NCI-H23, 48 h, read-out: GI
[24] = tested on: NCI-H322M; test: Growth inhibition of human NCI-H322M cells at 10 uM incubated for 48 hrs by sulforhodamine B assay relative to control; format: functional; conditions: read-out: GI
[25] = tested on: NCI-H522; test: Growth inhibition of human NCI-H522 cells at 10 uM incubated for 48 hrs by sulforhodamine B assay relative to control; format: functional; conditions: NCI-H522, 48 h, read-out: GI
[26] = tested on: HT-29; test: Growth inhibition of human HT-29 cells at 10 uM incubated for 48 hrs by sulforhodamine B assay relative to control; format: functional; conditions: HT-29, 48 h, read-out: GI
[27] = tested on: KM12; test: Growth inhibition of human KM12 cells at 10 uM incubated for 48 hrs by sulforhodamine B assay relative to control; format: functional; conditions: KM12, 48 h, read-out: GI
[28] = tested on: SW-620; test: Growth inhibition of human SW620 cells at 10 uM incubated for 48 hrs by sulforhodamine B assay relative to control; format: functional; conditions: SW-620, 48 h, read-out: GI
[29] = tested on: SF-268; test: Growth inhibition of human SF268 cells at 10 uM incubated for 48 hrs by sulforhodamine B assay relative to control; format: functional; conditions: SF-268, 48 h, read-out: GI
[30] = tested on: SF-539; test: Growth inhibition of human SF539 cells at 10 uM incubated for 48 hrs by sulforhodamine B assay relative to control; format: functional; conditions: SF-539, 48 h, read-out: GI
[31] = tested on: SNB-75; test: Growth inhibition of human SNB75 cells at 10 uM incubated for 48 hrs by sulforhodamine B assay relative to control; format: functional; conditions: SNB-75, 48 h, read-out: GI
[32] = tested on: U-251; test: Growth inhibition of human U251 cells at 10 uM incubated for 48 hrs by sulforhodamine B assay relative to control; format: functional; conditions: U-251, 48 h, read-out: GI
[33] = tested on: Malme-3M; test: Growth inhibition of human MALME-3M cells at 10 uM incubated for 48 hrs by sulforhodamine B assay relative to control; format: functional; conditions: read-out: GI
[34] = tested on: MDA-MB-435; test: Growth inhibition of human MDA-MB-435 cells at 10 uM incubated for 48 hrs by sulforhodamine B assay relative to control; format: functional; conditions: MDA-MB-435, 48 h, read-out: GI
[35] = tested on: SK-MEL-2; test: Growth inhibition of human SK-MEL-2 cells at 10 uM incubated for 48 hrs by sulforhodamine B assay relative to control; format: functional; conditions: SK-MEL-2, 48 h, read-out: GI
[36] = tested on: SK-MEL-28; test: Growth inhibition of human SK-MEL-28 cells at 10 uM incubated for 48 hrs by sulforhodamine B assay relative to control; format: functional; conditions: SK-MEL-28, 48 h, read-out: GI
[37] = tested on: SK-MEL-5; test: Growth inhibition of human SK-MEL-5 cells at 10 uM incubated for 48 hrs by sulforhodamine B assay relative to control; format: functional; conditions: SK-MEL-5, 48 h, read-out: GI
[38] = tested on: UACC-257; test: Growth inhibition of human UACC257 cells at 10 uM incubated for 48 hrs by sulforhodamine B assay relative to control; format: functional; conditions: UACC-257, 48 h, read-out: GI
[39] = tested on: UACC-62; test: Growth inhibition of human UACC62 cells at 10 uM incubated for 48 hrs by sulforhodamine B assay relative to control; format: functional; conditions: UACC-62, 48 h, read-out: GI
[40] = tested on: OVCAR-8; test: Growth inhibition of human OVCAR8 cells at 10 uM incubated for 48 hrs by sulforhodamine B assay relative to control; format: functional; conditions: OVCAR-8, 48 h, read-out: GI
[41] = tested on: SK-OV-3; test: Growth inhibition of human SKOV3 cells at 10 uM incubated for 48 hrs by sulforhodamine B assay relative to control; format: functional; conditions: SK-OV-3, 48 h, read-out: GI
[42] = tested on: A498; test: Growth inhibition of human A498 cells at 10 uM incubated for 48 hrs by sulforhodamine B assay relative to control; format: functional; conditions: A498, 48 h, read-out: GI
[43] = tested on: SN12C; test: Growth inhibition of human SN12C cells at 10 uM incubated for 48 hrs by sulforhodamine B assay relative to control; format: functional; conditions: read-out: GI
[44] = tested on: TK-10; test: Growth inhibition of human TK10 cells at 10 uM incubated for 48 hrs by sulforhodamine B assay relative to control; format: functional; conditions: TK-10, 48 h, read-out: GI
[45] = tested on: UO-31; test: Growth inhibition of human UO31 cells at 10 uM incubated for 48 hrs by sulforhodamine B assay relative to control; format: functional; conditions: UO-31, 48 h, read-out: GI
[46] = tested on: PC-3; test: Growth inhibition of human PC3 cells at 10 uM incubated for 48 hrs by sulforhodamine B assay relative to control; format: functional; conditions: PC-3, 48 h, read-out: GI
[47] = tested on: MCF7; test: Growth inhibition of human MCF7 cells at 10 uM incubated for 48 hrs by sulforhodamine B assay relative to control; format: functional; conditions: MCF7, 48 h, read-out: GI
[48] = tested on: Hs-578T; test: Growth inhibition of human Hs 578T cells at 10 uM incubated for 48 hrs by sulforhodamine B assay relative to control; format: functional; conditions: read-out: GI
[49] = tested on: T47D; test: Growth inhibition of human T47D cells at 10 uM incubated for 48 hrs by sulforhodamine B assay relative to control; format: functional; conditions: read-out: GI
[50] = biological target: Tubulin (Homo sapiens) (UniProt P68371+Q9H4B7+P0DPH7+P68366+Q13509+Q71U36+P04350+Q3ZCM7+P07437+P68363+Q9BQE3+Q6PEY2+Q13885+Q9BVA1+Q9BUF5); test: Inhibition of tubulin (unknown origin) polymerization assessed as polymerized tubulin level at 5 to 25 uM by fluorescence assay; format: protein-complex assay

COc1cc(-c2nc3sc(-c4ccc(Cl)cc4)cn3n2)cc(OC)c1OC
IC50 [1]: 3.5 µM
IC50 [2]: 3.9 µM
IC50 [3]: 3.5 µM
IC50 [4]: 3 µM
IC50 [5]: 1.7 µM
Activity [6]: 5.38%
Activity [7]: 7.65%
Activity [8]: 1.84%
viability at 0.4 µM [9]: 83.5%
Activity [10]: 49.52%
Activity [11]: 22.92%
Activity [12]: 12.69%

COc1cc(-c2nc(N)n(CC(=O)Nc3ccc(/C(C)=N\O)cc3)n2)cc(OC)c1OC
inhibition of growth at 10 µM [13]: 15.5%
inhibition of growth at 10 µM [14]: 8.41%
inhibition of growth at 10 µM [15]: 3.93%
inhibition of growth at 10 µM [16]: 8.41%
inhibition of growth at 10 µM [17]: 5.69%
inhibition of growth at 10 µM [18]: 17%
inhibition of growth at 10 µM [19]: 25.8%
inhibition of growth at 10 µM [20]: 5.54%
inhibition of growth at 10 µM [21]: 11.8%
inhibition of growth at 10 µM [22]: 5.19%
inhibition of growth at 10 µM [23]: 4.21%
inhibition of growth at 10 µM [24]: 5.82%
inhibition of growth at 10 µM [25]: 29.2%
inhibition of growth at 10 µM [26]: 13.6%
inhibition of growth at 10 µM [27]: 2.75%
inhibition of growth at 10 µM [28]: 4.8%
inhibition of growth at 10 µM [29]: 6.49%
inhibition of growth at 10 µM [30]: 2.92%
inhibition of growth at 10 µM [31]: 25.9%
inhibition of growth at 10 µM [32]: 14.2%
inhibition of growth at 10 µM [33]: 3.25%
inhibition of growth at 10 µM [34]: 18%
inhibition of growth at 10 µM [35]: 8%
inhibition of growth at 10 µM [36]: 5.76%
inhibition of growth at 10 µM [37]: 2.08%
inhibition of growth at 10 µM [38]: 36.3%
inhibition of growth at 10 µM [39]: 16.4%
inhibition of growth at 10 µM [40]: 25.7%
inhibition of growth at 10 µM [41]: 12.1%
inhibition of growth at 10 µM [42]: 11.2%
inhibition of growth at 10 µM [43]: 4%
inhibition of growth at 10 µM [44]: 9.11%
inhibition of growth at 10 µM [45]: 20.5%
inhibition of growth at 10 µM [46]: 23.3%
inhibition of growth at 10 µM [47]: 10.8%
inhibition of growth at 10 µM [48]: 17.9%
inhibition of growth at 10 µM [49]: 8.77%
IC50 [1]: 5.2 µM
IC50 [2]: 5.7 µM
IC50 [3]: 7.9 µM
IC50 [4]: 7.9 µM

CC(=O)O[C@@]12CO[C@@H]1C[C@H](O)[C@@]1(C)C(=O)[C@H](O)C3=C(C)[C@@H](OC(=O)[C@H](O)[C@@H](NC(=O)OC(C)(C)C)c4ccccc4)C[C@@](O)([C@@H](OC(=O)c4ccccc4)[C@H]21)C3(C)C
Activity [50]: 4740 a.u.
